These results are taken from PubChem BioAssay AID977605 (Broad Institute, 2014).

Activity calls are given as the source filed them.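 How the source made its calls: active means fitted curve reaches 40% activation below the top valid tested dose, in every test run; inconclusive means test runs disagree on the call; inactive means the rest, including effects opposite to the expected direction.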

The first assay is described as follows: E-selectin inducers in HUVECs, dose response, imaging, HUVEC, cherry-picked samples (AID 977605).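 Further: signal is the share of imaged cells scored positive for E-selectin.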 To be noted: HUVEC E-selectin immunostaining, at 19.5 µM (top of the series), percent of TNF-alpha response over vehicle.
With `C[C@@H]1CN([C@H](C)CO)C(=O)Cc2cc(NC(=O)Cn3cnnn3)ccc2O[C@H]1CN(C)C(=O)Nc1ccc(C(F)(F)F)cc1`, the activation was 0.232% (inactive).
With `C[C@H](CO)N1C[C@H](C)[C@H](CN(C)CC2CCCCC2)Oc2ccc(NC(=O)Nc3ccc4c(c3)OCO4)cc2C1=O`, the activation is -0.185% (inactive).
With `Cc1noc(C)c1NC(=O)N(C)C[C@H]1Oc2ccc(NC(=O)c3ccncc3)cc2C(=O)N([C@H](C)CO)C[C@H]1C`, the activation was 0.014% (inactive).
For the molecule `Cc1cccc(NS(=O)(=O)c2ccc(S(=O)(=O)N3CCCC3)cc2)c1`, the activation is 1.83% (inactive).
In the case of `COc1ccc(S(=O)(=O)N(C)C[C@@H]2Oc3ccc(NC(=O)Nc4c(C)noc4C)cc3C(=O)N([C@H](C)CO)C[C@@H]2C)cc1`, the activation was -0.123% (inactive).
Take `C[C@H](CO)N1C[C@H](C)[C@@H](CN(C)Cc2ccc(C(F)(F)F)cc2)Oc2ccc(N(C)C)cc2CC1=O`: the activation is 0.906% (inactive).
As for `COc1ccc(S(=O)(=O)N(C)C[C@H]2Oc3ccc(NC(=O)CCCN(C)C)cc3C(=O)N([C@@H](C)CO)C[C@@H]2C)cc1`, the activation is -0.152% (inactive).
As for `C[C@@H]1CN([C@@H](C)CO)C(=O)c2cc(C3=CCCCC3)cnc2O[C@H]1CN(C)C(=O)NC1CCCC1`, the activation is -0.267% (inactive).
With `C[C@H]1CN([C@@H](C)CO)C(=O)c2cc(NC(=O)CCN3CCOCC3)ccc2O[C@@H]1CN(C)Cc1ccncc1`, the activation is 0.277% (inactive).
For `CC(=O)NC1C(=O)N(CCN2CCOCC2)c2ccc(F)cc21` (stereo not drawn), the activation is -0.179% (inactive).
As to `CC(C)CCNC(=O)c1cn(C)c2ccc(S(=O)(=O)N3CCCC3)cc2c1=O`, the activation was -0.129% (inactive).
Same read-out and setting: with `CC(=O)NC(Cc1c[nH]c2ccccc12)C(=O)NCCc1ccccn1` (stereo not drawn) the figure was 0.144% (inactive).
As to `COc1ccc(CN(C)C[C@@H]2Oc3ccc(NC(=O)Nc4ccc(F)cc4)cc3CC(=O)N([C@H](C)CO)C[C@@H]2C)cc1`, the activation is -0.068% (inactive).
With `COc1ccc(S(=O)(=O)Nc2cccc3c2O[C@H](CN(C)C(=O)Nc2c(C)noc2C)[C@H](C)CN([C@@H](C)CO)C3=O)cc1`, the activation is -0.052% (inactive).
Consider `C[C@@H]1CN([C@H](C)CO)C(=O)Cc2cc(NS(C)(=O)=O)ccc2O[C@H]1CN(C)S(=O)(=O)c1cn(C)cn1`, for which the activation is -0.104% (inactive).
The same measure, in the same setting: with `Cc1noc(C)c1NC(=O)Nc1ccc2c(c1)CC(=O)N([C@@H](C)CO)C[C@H](C)[C@@H](CN(C)C(=O)Nc1ccc(F)cc1)O2` the figure was -0.02% (inactive); with `CC(=O)Nc1ccc(NC(=O)COc2ccc(Cl)cc2Cl)cc1`, -0.194% (inactive).
As to `O=C(CN(C(=O)c1csnn1)c1ccc2c(c1)OCCO2)NCc1ccc(F)cc1`, the activation is -0.09% (inactive).
Turning to `Cc1ccc(S(=O)(=O)Nc2cc(S(=O)(=O)N3CCCCC3)ccc2N2CCOCC2)cc1`, the activation is 0.047% (inactive).
As to `C[C@H](CO)N1C[C@H](C)[C@@H](CN(C)S(=O)(=O)c2cccs2)Oc2ccc(NS(=O)(=O)c3ccc(Cl)cc3)cc2CC1=O`, the activation is 0.125% (inactive).
Still for that read-out and setting: with `COc1cccc(CNC(=O)c2cc3c(cc2Cl)N2CCCCCC2=NS3(=O)=O)c1` the figure was -0.058% (inactive).
Regarding `C[C@H](CO)N1C[C@H](C)[C@H](CN(C)Cc2ccc3c(c2)OCO3)Oc2ccc(NC(=O)Cn3cnnn3)cc2C1=O`, the activation was 2.56% (inactive).
Regarding `CCCN1CCN(C(=O)c2ccc(CS(=O)c3ccc(Cl)cc3)o2)CC1` (stereo not drawn), the activation is 0.214% (inactive).
Consider `COc1ccc(CN(C)C[C@H]2Oc3ccc(NC(=O)Cn4cnnn4)cc3CC(=O)N([C@@H](C)CO)C[C@@H]2C)cc1`, for which the activation was -0.061% (inactive).
As for `COc1ccc(N2CCN(C(=O)c3cccc(NC4=NC5CS(=O)(=O)CC5S4)c3)CC2)cc1` (stereo not drawn), the activation is -0.136% (inactive).
As for `CC(C)C[C@@H]1COc2cc(N3CCC[C@H]3CO)ccc2S(=O)(=O)N1`, the activation was -0.153% (inactive).
On to `Cc1[nH]c(C)c(S(=O)(=O)N2CCCCC2)c1C(=O)N1CCCC1`, for which the activation is -0.044% (inactive).
On to `COc1ccc(NC(=O)Nc2cccc3c2O[C@H](CN(C)C(=O)NC2CCCCC2)[C@H](C)CN([C@H](C)CO)C3=O)cc1`, for which the activation is 0.915% (inactive).
`C[C@H]1CN([C@@H](C)CO)C(=O)c2cc(NC(=O)CCC(F)(F)F)ccc2O[C@@H]1CN(C)Cc1ccc(C(F)(F)F)cc1`: the activation is 0.111% (inactive).
Take `COc1ccc(S(=O)(=O)N(C)C[C@H]2Oc3ccc(NS(=O)(=O)c4c(C)noc4C)cc3C(=O)N([C@@H](C)CO)C[C@H]2C)cc1`: the activation is 0.307% (inactive).
For `C[C@H]1CN([C@@H](C)CO)C(=O)c2cc(NC(=O)C3CCCCC3)ccc2O[C@H]1CN(C)Cc1ccc(C(=O)Nc2ccccc2N)cc1`, the activation was 4.92% (inactive).
In the case of `Cc1ccccc1CNc1ncnc2cc(Cl)ccc12`, the activation was 0.221% (inactive).
Same read-out and setting: with `CC(C)(C)c1ccc(C(=O)Nc2ccc3c(c2)C(=O)NC3=O)cc1` the figure was 0.042% (inactive).
Consider `C[C@@H]1CN([C@H](C)CO)C(=O)Cc2cc(NC(=O)CCCCCC(=O)Nc3ccccc3N)ccc2O[C@H]1CN(C)C(=O)Nc1ccc2c(c1)OCO2`, for which the activation was -0.123% (inactive).
For `C[C@H]1CN([C@@H](C)CO)C(=O)c2cc(NC(=O)Cn3cnnn3)ccc2O[C@H]1CN(C)S(=O)(=O)c1ccccc1`, the activation is -0.003% (inactive).
For the molecule `CCc1nc(=O)c(-c2ccccc2)c(C)n1-c1ccccc1`, the activation is -0.02% (inactive).
With `C[C@H](CO)N1C[C@H](C)[C@H](CN(C)S(=O)(=O)c2ccc(Cl)cc2)Oc2ccc(NC(=O)Cc3ccccc3)cc2C1=O`, the activation is -0.076% (inactive).
As to `COc1ccc(S(=O)(=O)N(C)C[C@H]2Oc3ccc(NC(=O)c4ccncc4)cc3C(=O)N([C@H](C)CO)C[C@@H]2C)cc1`, the activation was -0.104% (inactive).
Take `COc1ccc(S(=O)(=O)N(C)C[C@H]2Oc3ccc(NC(=O)Nc4ccc5c(c4)OCO5)cc3CC(=O)N([C@H](C)CO)C[C@@H]2C)cc1`: the activation is 0.086% (inactive).
Turning to `CC(C)NC(=O)Nc1ccc2c(c1)C(=O)N(C)[C@@H]1CC[C@@H](CC(=O)NCC(F)(F)F)O[C@@H]1CO2`, the activation is 0.147% (inactive).
On the same count and under the same terms, with `C[C@@H]1CN([C@H](C)CO)C(=O)c2cccc(NC(=O)Nc3ccc(F)cc3)c2O[C@H]1CN(C)Cc1ccncc1` the figure was -0.015% (inactive); with `C[C@H](CO)N1C[C@H](C)[C@@H](CN(C)Cc2ccc(C(=O)O)cc2)Oc2ccc(NC(=O)Nc3ccc(F)cc3)cc2CC1=O`, 0.279% (inactive); with `C[C@H](CO)N1C[C@H](C)[C@H](CN(C)Cc2ccc(Oc3ccccc3)cc2)Oc2c(NC(=O)C3CCOCC3)cccc2C1=O`, 6.04% (inactive).
In the case of `CCn1c(CNc2ccc(Cl)cc2)nnc1SCC#N`, the activation was -0.124% (inactive).
The same measure, in the same setting: with `CC1CN(S(=O)(=O)c2ccc(F)cc2)C(C)N1C(=O)N1CCOCC1` (stereo not drawn) the figure was -0.215% (inactive); with `C/C(=N\NC(=O)c1cc(C(C)C)[nH]n1)c1ccco1`, 0.133% (inactive).
For the molecule `Cc1ccc(S(=O)(=O)Nc2ccc3c(c2)C(=O)N([C@H](C)CO)C[C@H](C)[C@H](CN(C)C(=O)Nc2cccc4ccccc24)OCCCC[C@@H](C)O3)cc1`, the activation is 7.64% (inactive).
In the case of `Cc1cccc(NC(=O)CCCN2C(=O)C(c3ccccc3)Oc3cccnc32)c1C` (stereo not drawn), the activation was 0.811% (inactive).
On the same count and under the same terms, with `CCC(CC)NC(=O)Nc1ccc(F)c(Cl)c1` the figure was 0.516% (inactive); with `C[C@H]1CN([C@@H](C)CO)C(=O)c2cccc(NC(=O)Nc3cccc4ccccc34)c2O[C@H]1CN(C)Cc1ccc(-c2ccccc2)cc1`, 0.067% (inactive); with `Cc1noc(C)c1S(=O)(=O)N(C)C[C@@H]1Oc2ccc(NC(=O)Nc3ccc(F)cc3)cc2CC(=O)N([C@@H](C)CO)C[C@@H]1C`, -0.013% (inactive).
As to `Cc1ccc(S(=O)(=O)N[C@@H](Cc2ccccc2)C(=O)N2CCC(C(=O)N[C@@H](CCC(N)=O)C(=O)O)CC2)cc1`, the activation is 0.009% (inactive).

The assay is the same for the next values; noted with them: HUVEC E-selectin immunostaining, at 21 µM (top of the series), percent of TNF-alpha response over vehicle.
For the molecule `COc1ccc(CN(C)C[C@@H]2Oc3c(NC(=O)c4cnccn4)cccc3C(=O)N([C@@H](C)CO)C[C@H]2C)cc1`, the activation is -0.033% (inactive).
Turning to `C[C@@H]1CN([C@H](C)CO)C(=O)c2cccc(NC(=O)C3CCOCC3)c2O[C@H]1CN(C)C(=O)Nc1ccccc1`, the activation was -0.271% (inactive).
Still for that read-out and setting: with `COc1ccc(S(=O)(=O)N(C)C[C@H]2Oc3ccc(NC(=O)Nc4ccc5c(c4)OCO5)cc3CC(=O)N([C@H](C)CO)C[C@H]2C)cc1` the figure was 0.257% (inactive); with `C[C@@H]1CN([C@H](C)CO)C(=O)c2cc(NS(=O)(=O)c3cn(C)cn3)ccc2O[C@@H]1CN(C)C(=O)Nc1ccc2c(c1)OCO2`, -0.098% (inactive); with `C[C@@H]1CN([C@H](C)CO)C(=O)c2cccc(NS(=O)(=O)c3ccc(F)cc3)c2O[C@@H]1CN(C)S(=O)(=O)c1cccs1`, -0.042% (inactive).
Regarding `C[C@@H]1CN([C@@H](C)CO)C(=O)c2cc(NS(=O)(=O)c3cn(C)cn3)ccc2O[C@H]1CN(C)C(=O)Nc1ccc(F)cc1`, the activation is 0.066% (inactive).
On the same count and under the same terms, with `COc1ccc(CN(C)C[C@H]2Oc3ccc(NC(=O)CCCN(C)C)cc3C(=O)N([C@H](C)CO)C[C@H]2C)cc1` the figure was -0.188% (inactive); with `C[C@H]1CN([C@@H](C)CO)C(=O)c2cccc(NS(=O)(=O)c3cccs3)c2O[C@@H]1CN(C)Cc1ccc(C(=O)Nc2ccccc2N)cc1`, -0.225% (inactive).
In the case of `C[C@H]1CN([C@@H](C)CO)C(=O)Cc2cc(NC(=O)Nc3ccc4c(c3)OCO4)ccc2O[C@@H]1CN(C)C`, the activation is -0.039% (inactive).
The same measure, in the same setting: with `C[C@H](CO)N1C[C@H](C)[C@H](CN(C)C(=O)c2ccccc2)OCc2ccccc2-c2c(n(C)c3ccccc23)C1=O` the figure was -0.093% (inactive).
Take `CC(C)NC(=O)Nc1cccc2c1O[C@@H](CN(C)Cc1ccc(Cl)c(Cl)c1)[C@@H](C)CN([C@H](C)CO)C2=O`: the activation is 7.29% (inactive).
